Data: ChEMBL document CHEMBL1157898 (Bioorg Med Chem Lett, 2010)
Each block holds one molecule with its values, some of them ahead of it. Activity calls are given as the source filed them. No cut-off for these calls is given here.

Experiments:
H4 = experiment: Toxicity in human H4 cells at 10 uM; format: cell-based; details: h4, 10 µM
[1] = molecular target: T1, Gamma-secretase (Homo sapiens) (UniProt Q96BI3+Q9NZ42+Q8WW43+P49768+Q92542+P49810); experiment: Inhibition of gamma secretase in HEK293 cells assessed as amyloid beta 40 secretion at 50 uM; format: cell-based
[2] = molecular target: T1, Gamma-secretase (Homo sapiens); experiment: Inhibition of gamma secretase in HEK293 cells assessed as amyloid beta 38 secretion at 50 uM; format: cell-based
[3] = molecular target: T1, Gamma-secretase (Homo sapiens); experiment: Inhibition of gamma secretase in HEK293 cells assessed as amyloid beta 42 secretion at 50 uM; format: cell-based
[4] = molecular target: T1, Gamma-secretase (Homo sapiens); experiment: Inhibition of gamma secretase in HEK293 cells assessed as amyloid beta secretion at 150 uM; format: cell-based
[5] = molecular target: T1, Gamma-secretase (Homo sapiens); experiment: Inhibition of gamma secretase in HEK293 cells assessed as amyloid beta secretion at 250 uM; format: cell-based
N2a [6] = experiment: Inhibition of gamma secretase mediated amyloid beta 40 secretion in mouse N2a cells overexpressing CK1epsilon-271 within 5- to 50 uM after 3hr; format: cell-based
N2a [7] = experiment: Inhibition of gamma secretase mediated amyloid beta 42 secretion in mouse N2a cells overexpressing CK1epsilon-271 within 5- to 50 uM after 3hr; format: cell-based
[8] = molecular target: RAC-alpha serine/threonine-protein kinase (Homo sapiens) (UniProt P31749); experiment: Inhibition of AKT1
[9] = Inhibition of AMPK
[10] = molecular target: T2, Aurora kinase A (Homo sapiens) (UniProt O14965); experiment: Inhibition of Aurora A
T2 sequence (whole entry): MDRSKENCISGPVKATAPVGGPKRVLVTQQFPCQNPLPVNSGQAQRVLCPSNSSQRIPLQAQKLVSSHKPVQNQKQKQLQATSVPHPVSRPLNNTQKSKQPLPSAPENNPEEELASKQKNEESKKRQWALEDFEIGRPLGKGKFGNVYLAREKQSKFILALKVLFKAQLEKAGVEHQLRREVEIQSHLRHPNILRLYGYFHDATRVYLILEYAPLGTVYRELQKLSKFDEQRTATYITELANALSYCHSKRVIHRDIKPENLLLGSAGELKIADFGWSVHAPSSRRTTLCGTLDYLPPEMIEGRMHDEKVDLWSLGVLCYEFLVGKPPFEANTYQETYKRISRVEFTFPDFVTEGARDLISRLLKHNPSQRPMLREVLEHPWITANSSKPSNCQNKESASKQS

[11] = Inhibition of CAMK2
[12] = molecular target: T3, Calcium/calmodulin-dependent protein kinase type IV (Homo sapiens) (UniProt Q16566); experiment: Inhibition of CAMK4
T3 sequence (whole entry): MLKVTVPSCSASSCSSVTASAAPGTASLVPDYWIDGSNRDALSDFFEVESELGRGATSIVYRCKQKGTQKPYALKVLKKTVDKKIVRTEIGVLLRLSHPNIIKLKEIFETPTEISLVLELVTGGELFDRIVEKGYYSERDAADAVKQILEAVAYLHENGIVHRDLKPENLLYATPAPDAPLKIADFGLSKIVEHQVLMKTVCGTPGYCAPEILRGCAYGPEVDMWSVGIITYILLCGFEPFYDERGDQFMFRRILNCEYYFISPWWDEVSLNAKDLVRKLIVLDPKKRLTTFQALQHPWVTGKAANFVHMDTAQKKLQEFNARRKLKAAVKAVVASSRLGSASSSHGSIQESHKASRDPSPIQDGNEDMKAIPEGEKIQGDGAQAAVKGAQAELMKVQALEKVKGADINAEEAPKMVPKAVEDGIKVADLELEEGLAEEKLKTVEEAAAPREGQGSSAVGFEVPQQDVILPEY

[13] = molecular target: T4, Serine/threonine-protein kinase Chk1 (Homo sapiens) (UniProt O14757); experiment: Inhibition of CHK1
T4 sequence (whole entry): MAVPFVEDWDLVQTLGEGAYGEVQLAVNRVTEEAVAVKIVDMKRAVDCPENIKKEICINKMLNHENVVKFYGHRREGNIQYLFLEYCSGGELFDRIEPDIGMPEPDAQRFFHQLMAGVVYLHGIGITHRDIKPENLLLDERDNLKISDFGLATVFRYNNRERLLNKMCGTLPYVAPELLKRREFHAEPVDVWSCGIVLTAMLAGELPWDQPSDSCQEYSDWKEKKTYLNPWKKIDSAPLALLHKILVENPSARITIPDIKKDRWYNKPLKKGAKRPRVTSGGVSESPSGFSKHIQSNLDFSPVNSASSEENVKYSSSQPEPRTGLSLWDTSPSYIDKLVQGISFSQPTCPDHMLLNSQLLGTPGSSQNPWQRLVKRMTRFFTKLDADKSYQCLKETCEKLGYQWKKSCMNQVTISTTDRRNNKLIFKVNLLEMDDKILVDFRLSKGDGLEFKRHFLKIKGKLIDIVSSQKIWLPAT

[14] = molecular target: Serine/threonine-protein kinase Chk2 (Homo sapiens) (UniProt O96017); experiment: Inhibition of CHK2
[15] = molecular target: T1, Gamma-secretase (Homo sapiens); experiment: Inhibition of gamma secretase in HEK293 cells assessed as amyloid beta secretion; format: cell-based
[16] = molecular target: Casein kinase I isoform delta (Homo sapiens) (UniProt P48730); experiment: Inhibition of CK1delta
[17] = molecular target: T1, Gamma-secretase (Homo sapiens); experiment: Inhibition of gamma secretase mediated amyloid beta 38 generation in human H4 cells at 5 uM by LPECL assay; values are per cent of control
[18] = molecular target: T1, Gamma-secretase (Homo sapiens); experiment: Inhibition of gamma secretase mediated amyloid beta 40 generation in human H4 cells at 5 uM by LPECL assay; values are per cent of control
[19] = molecular target: T1, Gamma-secretase (Homo sapiens); experiment: Inhibition of gamma secretase mediated amyloid beta 42 generation in human H4 cells at 5 uM by LPECL assay; values are per cent of control

Serine/threonine-protein kinase Chk2 (Homo sapiens), sequence (O96017 whole entry): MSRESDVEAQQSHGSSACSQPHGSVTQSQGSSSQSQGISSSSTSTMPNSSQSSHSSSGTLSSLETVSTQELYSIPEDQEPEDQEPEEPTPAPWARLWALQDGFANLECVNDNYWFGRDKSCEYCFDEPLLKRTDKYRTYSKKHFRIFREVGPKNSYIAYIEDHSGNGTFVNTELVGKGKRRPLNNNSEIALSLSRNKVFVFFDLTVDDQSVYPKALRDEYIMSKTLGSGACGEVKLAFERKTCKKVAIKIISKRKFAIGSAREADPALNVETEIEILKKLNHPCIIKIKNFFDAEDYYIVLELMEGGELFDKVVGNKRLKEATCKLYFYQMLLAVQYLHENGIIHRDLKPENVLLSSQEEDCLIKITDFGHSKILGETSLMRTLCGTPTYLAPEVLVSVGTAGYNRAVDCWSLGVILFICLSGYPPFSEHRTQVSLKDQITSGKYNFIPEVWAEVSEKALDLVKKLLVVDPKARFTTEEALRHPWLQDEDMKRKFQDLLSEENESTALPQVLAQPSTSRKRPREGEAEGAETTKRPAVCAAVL
RAC-alpha serine/threonine-protein kinase (Homo sapiens), sequence (P31749 whole entry): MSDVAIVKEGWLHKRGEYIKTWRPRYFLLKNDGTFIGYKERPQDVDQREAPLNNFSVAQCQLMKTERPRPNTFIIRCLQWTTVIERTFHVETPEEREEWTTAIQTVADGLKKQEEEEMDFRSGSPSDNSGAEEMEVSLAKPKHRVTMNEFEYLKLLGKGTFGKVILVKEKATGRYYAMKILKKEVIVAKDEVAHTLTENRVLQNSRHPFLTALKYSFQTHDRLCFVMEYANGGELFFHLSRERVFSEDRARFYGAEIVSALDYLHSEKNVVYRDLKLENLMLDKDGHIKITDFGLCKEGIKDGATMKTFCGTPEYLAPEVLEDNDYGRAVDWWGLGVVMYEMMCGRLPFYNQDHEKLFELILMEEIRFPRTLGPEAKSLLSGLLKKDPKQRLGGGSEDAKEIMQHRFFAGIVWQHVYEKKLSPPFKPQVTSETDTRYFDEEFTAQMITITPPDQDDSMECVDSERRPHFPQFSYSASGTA
Casein kinase I isoform delta (Homo sapiens), sequence (P48730 whole entry, looked up, canonical isoform): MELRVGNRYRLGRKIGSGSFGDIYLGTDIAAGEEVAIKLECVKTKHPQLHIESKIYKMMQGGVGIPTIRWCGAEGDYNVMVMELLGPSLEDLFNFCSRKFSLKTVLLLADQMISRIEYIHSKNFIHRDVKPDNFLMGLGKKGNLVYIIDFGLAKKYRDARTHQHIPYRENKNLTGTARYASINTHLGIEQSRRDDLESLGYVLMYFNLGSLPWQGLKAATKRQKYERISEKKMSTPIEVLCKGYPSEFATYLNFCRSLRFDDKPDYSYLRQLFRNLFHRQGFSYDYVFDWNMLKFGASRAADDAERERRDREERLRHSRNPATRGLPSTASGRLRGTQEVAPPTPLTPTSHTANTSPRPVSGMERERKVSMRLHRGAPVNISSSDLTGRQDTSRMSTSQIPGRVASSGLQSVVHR

Compound: COc1cc(/C=C2/C(=O)Nc3ccc(Cl)cc32)cc(OC)c1OC
Activity (H4): 80 µM

Compound: COc1cc(OC)c(C=C2C(=O)Nc3ccccc32)c(OC)c1
inhibition [1]: inactive | inhibition [2]: inactive | inhibition [3]: inactive | inhibition [4]: inactive | inhibition [5]: Active | inhibition (N2a [6]): 68% | inhibition (N2a [7]): 61% | inhibition [8]: inactive | inhibition [9]: inactive | inhibition [10]: inactive | inhibition [11]: inactive | inhibition [12]: inactive | inhibition [13]: inactive | inhibition [14]: inactive

Compound: CCN(CC)CCNC(=O)c1c(C)[nH]c(/C=C2\C(=O)Nc3ccc(F)cc32)c1C [SUNITINIB]
Activity (H4): 40 µM | Activity [15]: inactive

Further lines, with some results ahead:

inhibition ([8]; concentration not given here): < 20% | inhibition ([9]; concentration not given here): < 20% | inhibition ([10]; concentration not given here): < 20% | inhibition ([11]; concentration not given here): < 20% | inhibition ([12]; concentration not given here): < 20% | inhibition ([13]; concentration not given here): < 20% | inhibition ([14]; concentration not given here): < 20% | inhibition ([16]; concentration not given here): < 20%
Compound: COc1cc(OC)c(/C=C2/C(=O)Nc3ccc(Cl)cc32)c(OC)c1
Activity (H4): 20 µM

inhibition [8]: inactive | inhibition [9]: inactive | inhibition [10]: inactive | inhibition [11]: inactive | inhibition [12]: inactive | inhibition [13]: inactive | inhibition [14]: inactive | inhibition [16]: inactive
Compound: COc1ccc(/C=C2/C(=O)Nc3ccc(Cl)cc32)c(OC)c1OC
Activity (H4): 20 µM

residual activity [17]: 81% | residual activity [18]: 106% | residual activity [19]: 112%
Compound: O=C1Nc2ccc(Cl)cc2/C1=C\c1cc(F)cc(F)c1
